Measurements as given in ChEMBL document CHEMBL2440076, “New triarylpyrazoles as broad-spectrum anticancer agents: design, synthesis, and biological evaluation” (Eur J Med Chem, 2013).

How the values were obtained:
Type in all cases: functional
HT-29 = assay: Growth inhibition of human HT-29 cells assessed as cell growth at 3X10'-7 M after 48 hrs by sulforhodamine B assay; conditions: HT-29, 48 h, read-out: Activity
SF-539 [1] = assay: Growth inhibition of human SF539 cells assessed as cell growth at 3X10'-6 M after 48 hrs by sulforhodamine B assay; conditions: SF-539, 48 h, read-out: Activity
OVCAR-8 [2] = assay: Growth inhibition of human OVCAR8 cells assessed as cell growth at 3X10'-8 M after 48 hrs by sulforhodamine B assay; conditions: OVCAR-8, 48 h, read-out: Activity
TK-10 [3] = assay: Growth inhibition of human TK10 cells assessed as cell growth at 3X10'-7 M after 48 hrs by sulforhodamine B assay; conditions: TK-10, 48 h, read-out: Activity
OVCAR-8 [4] = assay: Growth inhibition of human OVCAR8 cells assessed as cell growth at 3X10'-9 M after 48 hrs by sulforhodamine B assay; conditions: OVCAR-8, 48 h, read-out: Activity
OVCAR-3 = assay: Growth inhibition of human OVCAR3 cells assessed as cell growth at 3X10'-5 M after 48 hrs by sulforhodamine B assay; conditions: OVCAR-3, 48 h, read-out: Activity
HCT-15 [5] = assay: Growth inhibition of human HCT15 cells assessed as cell growth at 3X10'-9 M after 48 hrs by sulforhodamine B assay; conditions: HCT-15, 48 h, read-out: Activity
HCT-116 [6] = assay: Growth inhibition of human HCT116 cells assessed as cell growth at 3X10'-6 M after 48 hrs by sulforhodamine B assay; conditions: HCT-116, 48 h, read-out: Activity
HCT-15 [7] = assay: Growth inhibition of human HCT15 cells assessed as cell growth at 3X10'-7 M after 48 hrs by sulforhodamine B assay; conditions: HCT-15, 48 h, read-out: Activity
SF-539 [8] = assay: Growth inhibition of human SF539 cells assessed as cell growth at 3X10'-8 M after 48 hrs by sulforhodamine B assay; conditions: SF-539, 48 h, read-out: Activity
UO-31 = assay: Growth inhibition of human UO31 cells assessed as cell growth at 3X10'-6 M after 48 hrs by sulforhodamine B assay; conditions: UO-31, 48 h, read-out: Activity
ACHN = assay: Growth inhibition of human ACHN cells assessed as cell growth at 3X10'-6 M after 48 hrs by sulforhodamine B assay; conditions: read-out: Activity
SK-MEL-5 [9] = assay: Growth inhibition of human SK-MEL-5 cells assessed as cell growth at 3X10'-6 M after 48 hrs by sulforhodamine B assay; conditions: SK-MEL-5, 48 h, read-out: Activity
786-0 [10] = assay: Growth inhibition of human 786-0 cells assessed as cell growth at 3X10'-7 M after 48 hrs by sulforhodamine B assay; conditions: 786-0, 48 h, read-out: Activity
OVCAR-8 [11] = assay: Growth inhibition of human OVCAR8 cells assessed as cell growth at 3X10'-5 M after 48 hrs by sulforhodamine B assay; conditions: OVCAR-8, 48 h, read-out: Activity
K562 [12] = assay: Growth inhibition of human K562 cells assessed as cell growth at 3X10'-5 M after 48 hrs by sulforhodamine B assay; conditions: K562, 48 h, read-out: Activity
COLO 205 = assay: Growth inhibition of human COLO205 cells assessed as cell growth at 3X10'-5 M after 48 hrs by sulforhodamine B assay; conditions: COLO 205, 48 h, read-out: Activity
HOP-92 [13] = assay: Growth inhibition of human HOP92 cells assessed as cell growth at 3X10'-8 M after 48 hrs by sulforhodamine B assay; conditions: HOP-92, 48 h, read-out: Activity
[14] = Growth inhibition of human NCI-ADR-RES cells assessed as cell growth at 3X10'-7 M after 48 hrs by sulforhodamine B assay; conditions: read-out: Activity
NCI-H226 = assay: Growth inhibition of human NCI-H226 cells assessed as cell growth at 3X10'-5 M after 48 hrs by sulforhodamine B assay; conditions: NCI-H226, 48 h, read-out: Activity
SNB-75 = assay: Growth inhibition of human SNB75 cells assessed as cell growth at 3X10'-7 M after 48 hrs by sulforhodamine B assay; conditions: SNB-75, 48 h, read-out: Activity
T47D = assay: Growth inhibition of human T47D cells assessed as cell growth at 3X10'-6 M after 48 hrs by sulforhodamine B assay; conditions: read-out: Activity
TK-10 [15] = assay: Growth inhibition of human TK10 cells assessed as cell growth at 3X10'-6 M after 48 hrs by sulforhodamine B assay; conditions: TK-10, 48 h, read-out: Activity
HOP-92 [16] = assay: Growth inhibition of human HOP92 cells assessed as cell growth at 3X10'-7 M after 48 hrs by sulforhodamine B assay; conditions: HOP-92, 48 h, read-out: Activity
DU-145 [17] = assay: Growth inhibition of human DU145 cells assessed as cell growth at 3X10'-5 M after 48 hrs by sulforhodamine B assay; conditions: DU-145, 48 h, read-out: Activity
HCT-116 [18] = assay: Growth inhibition of human HCT116 cells assessed as cell growth at 3X10'-8 M after 48 hrs by sulforhodamine B assay; conditions: HCT-116, 48 h, read-out: Activity
SN12C = assay: Growth inhibition of human SN12C cells assessed as cell growth at 3X10'-7 M after 48 hrs by sulforhodamine B assay; conditions: read-out: Activity
A498 = assay: Growth inhibition of human A498 cells assessed as cell growth at 3X10'-6 M after 48 hrs by sulforhodamine B assay; conditions: A498, 48 h, read-out: Activity
OVCAR-4 = assay: Growth inhibition of human OVCAR4 cells assessed as cell growth at 3X10'-7 M after 48 hrs by sulforhodamine B assay; conditions: OVCAR-4, 48 h, read-out: Activity
PC-3 = assay: Growth inhibition of human PC3 cells assessed as cell growth at 3X10'-9 M after 48 hrs by sulforhodamine B assay; conditions: PC-3, 48 h, read-out: Activity
IGROV-1 = assay: Growth inhibition of human IGROV1 cells assessed as cell growth at 3X10'-6 M after 48 hrs by sulforhodamine B assay; conditions: IGROV-1, 48 h, read-out: Activity
A549 [19] = assay: Growth inhibition of human A549/ATCC cells assessed as cell growth at 3X10'-9 M after 48 hrs by sulforhodamine B assay; conditions: A549, 48 h, read-out: Activity
A549 [20] = assay: Growth inhibition of human A549/ATCC cells assessed as cell growth at 3X10'-5 M after 48 hrs by sulforhodamine B assay; conditions: A549, 48 h, read-out: Activity
786-0 [21] = assay: Growth inhibition of human 786-0 cells assessed as cell growth at 3X10'-8 M after 48 hrs by sulforhodamine B assay; conditions: 786-0, 48 h, read-out: Activity
OVCAR-5 = assay: Growth inhibition of human OVCAR5 cells assessed as cell growth at 3X10'-7 M after 48 hrs by sulforhodamine B assay; conditions: OVCAR-5, 48 h, read-out: Activity
K562 [22] = assay: Growth inhibition of human K562 cells assessed as cell growth at 3X10'-9 M after 48 hrs by sulforhodamine B assay; conditions: K562, 48 h, read-out: Activity
SK-MEL-5 [23] = assay: Growth inhibition of human SK-MEL-5 cells assessed as cell growth at 3X10'-8 M after 48 hrs by sulforhodamine B assay; conditions: SK-MEL-5, 48 h, read-out: Activity
DU-145 [24] = assay: Growth inhibition of human DU145 cells assessed as cell growth at 5X10'-6 M after 48 hrs by sulforhodamine B assay; conditions: DU-145, 48 h, read-out: Activity

Row | SMILES | growth at 0.3 µM (HT-29) [%] | growth at 3 µM (SF-539 [1]) [%] | growth at 0.03 µM (OVCAR-8 [2]) [%] | growth at 0.3 µM (TK-10 [3]) [%] | growth at 0.003 µM (OVCAR-8 [4]) [%] | growth at 30 µM (OVCAR-3) [%] | growth at 0.003 µM (HCT-15 [5]) [%] | growth at 3 µM (HCT-116 [6]) [%] | growth at 0.3 µM (HCT-15 [7]) [%] | growth at 0.03 µM (SF-539 [8]) [%] | growth at 3 µM (UO-31) [%] | growth at 3 µM (ACHN) [%] | growth at 3 µM (SK-MEL-5 [9]) [%] | growth at 0.3 µM (786-0 [10]) [%] | growth at 30 µM (OVCAR-8 [11]) [%] | growth at 30 µM (K562 [12]) [%] | growth at 30 µM (COLO 205) [%] | growth at 0.03 µM (HOP-92 [13]) [%] | growth at 0.3 µM [14] [%] | growth at 30 µM (NCI-H226) [%] | further results
1 | O=C(Nc1cccc(-n2cc(-c3ccncc3)c(-c3ccc(Cl)c(O)c3)n2)c1)Nc1cccc(C(F)(F)F)c1 | 111 | 54 | 106 | 107 | 99 | -25 | 95 | 23 | 96 | 100 | 37 | 21 | 17 | 99 | 7 | 6 | -14 | 77 | 98 | 20 | growth at 0.3 µM (SNB-75): 85%; growth at 3 µM (T47D): 44%; growth at 3 µM (TK-10 [15]): 37%; growth at 0.3 µM (HOP-92 [16]): 65%; growth at 30 µM (DU-145 [17]): 9%; growth at 0.03 µM (HCT-116 [18]): 97%; growth at 0.3 µM (SN12C): 99%; growth at 3 µM (A498): 44%; growth at 0.3 µM (OVCAR-4): 108%; growth at 0.003 µM (PC-3): 95%; growth at 3 µM (IGROV-1): 29%; growth at 0.003 µM (A549 [19]): 97%; growth at 30 µM (A549 [20]): 11%; growth at 0.03 µM (786-0 [21]): 96%; growth at 0.3 µM (OVCAR-5): 105%; growth at 0.003 µM (K562 [22]): 94%; growth at 0.03 µM (SK-MEL-5 [23]): 98%
2 | O=C(Nc1cccc(-n2cc(-c3ccncc3)c(-c3ccc(Cl)c(O)c3)n2)c1)Nc1ccc(Cl)c(C(F)(F)F)c1 | 93 | -14 | 95 | 101 | 100 | -16 | 98 | 4 | 84 | 94 | -3 | 8 | -81 | 96 | -14 | 1 | -90 | 76 | 90 | 5 | growth at 0.3 µM (SNB-75): 74%; growth at 3 µM (T47D): 11%; growth at 3 µM (TK-10 [15]): 24%; growth at 0.3 µM (HOP-92 [16]): 55%; growth at 30 µM (DU-145 [17]): -58%; growth at 0.03 µM (HCT-116 [18]): 106%; growth at 0.3 µM (SN12C): 91%; growth at 3 µM (A498): 24%; growth at 0.3 µM (OVCAR-4): 94%; growth at 0.003 µM (PC-3): 93%; growth at 3 µM (IGROV-1): -17%; growth at 0.003 µM (A549 [19]): 98%; growth at 30 µM (A549 [20]): -29%; growth at 0.03 µM (786-0 [21]): 102%; growth at 0.3 µM (OVCAR-5): 88%; growth at 0.003 µM (K562 [22]): 99%; growth at 0.03 µM (SK-MEL-5 [23]): 94%
3 | O=C(Nc1cccc(-n2cc(-c3ccncc3)c(-c3ccc(Cl)c(O)c3)n2)c1)Nc1cc(C(F)(F)F)cc(C(F)(F)F)c1 |  |  |  |  |  |  |  |  |  |  |  |  |  |  |  |  |  |  |  |  | growth at 5 µM (DU-145 [24]): 5%
4 | O=C(Nc1cccc(-n2cc(-c3ccncc3)c(-c3ccc(Cl)c(O)c3)n2)c1)c1ccc(N2CCOCC2)c(C(F)(F)F)c1 |  |  |  |  |  |  |  |  |  |  |  |  |  |  |  |  |  |  |  |  | growth at 5 µM (DU-145 [24]): 46%
